Legend:
[1] = target: T1, wild type LRRK2 overexpressed in recombinant HEK-293T cells (Homo sapiens, UniProt Q5S007); test: pS935 LRRK2 Cell Assay (HTRF, phospho-LRRK2 Ser935); format: cell-based; conditions: LRRK2 Inhibition, Table 8, 2 hours compound incubation
T1 construct: host or cells: HEK293T (transient transfection with pCMV-LRRK2 WT plasmid)
Method in brief: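 Phospho-Ser935 LRRK2 measured by two-antibody HTRF (Eu-cryptate donor, d2 acceptor; 665/615 nm ratio) after overnight detection at 23° C. Before lysis, transiently LRRK2-transfected HEK-293T cells were exposed 2 h at 37° C to a 9-point, 3-fold series from 10 μM, with DMSO at 0.2%.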

[2] = target: LRRK2 wild type enzyme (Homo sapiens, UniProt Q5S007); test: Biochemical Assay: LRRK2 TR-FRET (LanthaScreen) kinase assay with LRRKtide substrate; conditions: LRRK2 Inhibition, Table 8
Chain of LRRK2 wild type enzyme (Q5S007 whole entry): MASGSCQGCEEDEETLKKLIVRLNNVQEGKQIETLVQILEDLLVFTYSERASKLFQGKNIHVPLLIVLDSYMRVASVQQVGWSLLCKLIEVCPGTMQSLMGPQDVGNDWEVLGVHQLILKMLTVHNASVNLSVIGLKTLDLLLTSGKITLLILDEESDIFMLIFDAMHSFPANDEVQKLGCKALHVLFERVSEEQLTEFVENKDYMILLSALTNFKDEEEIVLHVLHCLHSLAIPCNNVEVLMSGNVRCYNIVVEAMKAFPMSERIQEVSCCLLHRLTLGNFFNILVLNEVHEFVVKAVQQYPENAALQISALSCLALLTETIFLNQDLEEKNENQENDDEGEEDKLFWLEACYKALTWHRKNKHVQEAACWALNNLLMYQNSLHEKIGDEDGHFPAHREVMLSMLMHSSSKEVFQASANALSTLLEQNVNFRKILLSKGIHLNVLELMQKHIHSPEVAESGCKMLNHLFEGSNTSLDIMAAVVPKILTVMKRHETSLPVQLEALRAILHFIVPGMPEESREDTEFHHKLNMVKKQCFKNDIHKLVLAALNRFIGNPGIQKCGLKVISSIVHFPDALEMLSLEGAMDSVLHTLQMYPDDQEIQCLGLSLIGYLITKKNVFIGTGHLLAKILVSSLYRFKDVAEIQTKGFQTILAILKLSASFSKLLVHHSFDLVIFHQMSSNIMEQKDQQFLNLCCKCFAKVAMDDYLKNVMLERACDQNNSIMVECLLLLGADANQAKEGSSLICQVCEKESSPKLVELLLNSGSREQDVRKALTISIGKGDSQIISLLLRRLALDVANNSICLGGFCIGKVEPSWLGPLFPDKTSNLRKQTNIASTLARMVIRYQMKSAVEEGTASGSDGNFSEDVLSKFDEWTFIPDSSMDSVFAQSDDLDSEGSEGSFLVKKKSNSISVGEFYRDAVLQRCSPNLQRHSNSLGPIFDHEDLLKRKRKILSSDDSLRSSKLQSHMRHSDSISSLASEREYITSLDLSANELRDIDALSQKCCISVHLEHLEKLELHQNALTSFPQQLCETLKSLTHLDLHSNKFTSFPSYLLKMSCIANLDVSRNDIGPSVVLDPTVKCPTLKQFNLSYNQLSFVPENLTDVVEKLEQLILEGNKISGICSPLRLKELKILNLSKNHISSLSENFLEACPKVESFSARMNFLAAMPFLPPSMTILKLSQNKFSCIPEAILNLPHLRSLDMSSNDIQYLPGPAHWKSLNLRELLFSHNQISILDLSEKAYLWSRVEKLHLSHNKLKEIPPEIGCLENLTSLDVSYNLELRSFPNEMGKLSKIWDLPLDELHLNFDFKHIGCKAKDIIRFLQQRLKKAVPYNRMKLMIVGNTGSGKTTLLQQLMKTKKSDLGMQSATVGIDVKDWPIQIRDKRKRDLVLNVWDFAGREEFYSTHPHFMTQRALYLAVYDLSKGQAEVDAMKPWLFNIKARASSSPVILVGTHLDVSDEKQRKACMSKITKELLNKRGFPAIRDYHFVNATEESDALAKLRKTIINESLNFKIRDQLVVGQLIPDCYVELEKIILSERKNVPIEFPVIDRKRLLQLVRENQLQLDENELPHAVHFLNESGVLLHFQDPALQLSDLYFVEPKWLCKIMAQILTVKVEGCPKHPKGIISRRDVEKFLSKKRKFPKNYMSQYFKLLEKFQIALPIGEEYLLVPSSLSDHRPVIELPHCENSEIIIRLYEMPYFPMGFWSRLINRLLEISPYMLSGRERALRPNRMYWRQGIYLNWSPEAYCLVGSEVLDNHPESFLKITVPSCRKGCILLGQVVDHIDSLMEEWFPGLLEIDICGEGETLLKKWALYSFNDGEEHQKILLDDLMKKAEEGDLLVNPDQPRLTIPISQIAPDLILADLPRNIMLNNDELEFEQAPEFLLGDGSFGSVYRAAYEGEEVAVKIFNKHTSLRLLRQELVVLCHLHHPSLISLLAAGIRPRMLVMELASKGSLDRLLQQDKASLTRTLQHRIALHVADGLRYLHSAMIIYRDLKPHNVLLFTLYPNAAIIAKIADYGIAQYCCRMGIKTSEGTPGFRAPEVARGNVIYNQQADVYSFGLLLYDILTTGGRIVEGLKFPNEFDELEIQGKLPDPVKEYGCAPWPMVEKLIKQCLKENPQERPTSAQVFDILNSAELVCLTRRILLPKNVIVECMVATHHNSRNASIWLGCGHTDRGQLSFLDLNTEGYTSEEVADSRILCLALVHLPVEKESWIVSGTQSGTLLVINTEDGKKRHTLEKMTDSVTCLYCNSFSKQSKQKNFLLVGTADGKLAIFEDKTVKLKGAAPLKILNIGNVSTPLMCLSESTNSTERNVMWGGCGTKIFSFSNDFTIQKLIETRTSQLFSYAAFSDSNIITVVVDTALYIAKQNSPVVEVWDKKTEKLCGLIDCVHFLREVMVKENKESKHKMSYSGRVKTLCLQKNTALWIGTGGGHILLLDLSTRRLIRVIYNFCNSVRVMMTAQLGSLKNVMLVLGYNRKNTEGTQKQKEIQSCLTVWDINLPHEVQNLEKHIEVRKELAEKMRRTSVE
Method in brief: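 TR-FRET detection (Tb-labelled phospho-LRRKtide antibody, EDTA stop, 30 min) followed a 120 min, 23 °C reaction of 3 nM wild-type human LRRK2 with LRRKtide (400 nM) and ATP (25 μM) in Tris pH 8.0. Compounds: 11-point 3-fold series from 10 μM, 15 min enzyme preincubation.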

T1 sequence (Q5S007 whole entry): as above

**Q.** `C[C@@H]1C[C@H](n2c(C3CCN(S(=O)(=O)C4CC4)CC3)nc3cnc4ccc(C#N)cc4c32)CCO1` [Compound 120, 2-[1-(cyclopropanesulfonyl)piperidin-4-yl]-1-[(2R,4R)-2-methyloxan-4-yl]-1H-imidazo[4,5-c]quinoline-8-carbonitrile] was tested. Which IC50 [1] did it give?
**A.** 268 nM

**Q.** What about the IC50 [2] of the same compound?
**A.** 1.7 nM

**Q.** `N#Cc1ccc2ncc3nc(CC(=O)NCC4CC4)n(C4CCCC4)c3c2c1` [Compound 109, 2-{8-cyano-1-cyclopentyl-1H-imidazo[4,5-c]quinolin-2-yl}-N— (cyclopropylmethyl)acetamide] was tested. Which IC50 [1] did it give?
**A.** 172 nM

**Q.** What about the IC50 [2] of the same compound?
**A.** 1.82 nM

**Q.** Which IC50 [1] does the source give for `C[C@@H]1C[C@H](n2c(CNc3nccn3C)nc3cnc4ccc(C#N)cc4c32)CCO1` [Compound 12, 2-{[(1-methyl-1H-imidazol-2-yl)amino]methyl}-1-[(2R,4R)-2-methyloxan-4-yl]-1H-imidazo[4,5-c]quinoline-8-carbonitrile] here?
**A.** > 10000 nM

**Q.** What about the IC50 [2] of the same compound?
**A.** 9.07 nM

**Q.** Which results are given for `C[C@@H]1C[C@H](n2c(CC(=O)Nc3ccccn3)nc3cnc4ccc(C#N)cc4c32)CCO1` [Compound 155, 2-{8-cyano-1-[(2R,4R)-2-methyloxan-4-yl]-1H-imidazo[4,5-c]quinolin-2-yl}-N-(pyridin-2-yl)acetamide]?
**A.** IC50 [1]: 2.87 nM; IC50 [2]: 0.441 nM

**Q.** What does the source list for `C[C@@H]1C[C@H](n2c([C@H]3CCN(C(=O)OC(C)(C)C)C3)nc3cnc4ccc(C#N)cc4c32)CCO1` [Compound 26, tert-butyl (3S)-3-{8-cyano-1-[(2R,4R)-2-methyloxan-4-yl]-1H-imidazo[4,5-c]quinolin-2-yl}pyrrolidine-1-carboxylate]?
**A.** IC50 [1]: 452 nM; IC50 [2]: 5.26 nM

**Q.** Which IC50 [1] does the source give for `C[C@@H]1C[C@H](n2c(CC(=O)NCC(C)(C)CO)nc3cnc4ccc(C#N)cc4c32)CCO1` [Compound 241, N-(3-hydroxy-2,2-dimethylpropyl){3-[(2R,4R)-2-methyltetrahydro-2H-pyran-4-yl]-12-cyano-3,5,8-triazatricyclo[7.4.0.0^2,6]trideca-1(9),2(6),4,7,10,12-hexaen-4-yl}acetamide] here?
**A.** 77.6 nM

**Q.** What about the IC50 [2] of the same compound?
**A.** 0.991 nM

**Q.** For `COc1ncc(NC(=O)Cc2nc3cnc4ccc(C#N)cc4c3n2[C@@H]2CCO[C@H](C)C2)c(C)n1` [Compound 243, N-(2-methoxy-4-methyl-5-pyrimidinyl){3-[(2R,4R)-2-methyltetrahydro-2H-pyran-4-yl]-12-cyano-3,5,8-triazatricyclo[7.4.0.0^2,6]trideca-1(9),2(6),4,7,10,12-hexaen-4-yl}acetamide], which IC50 [1] is on record?
**A.** 11.5 nM

**Q.** And the IC50 [2]?
**A.** 0.565 nM

**Q.** `C[C@@H]1C[C@H](n2c(C3CC(=O)N([C@H]4CCCOC4)C3)nc3cnc4ccc(C#N)cc4c32)CCO1` (stereo partly drawn) [Compound 52, 1-[(2R,4R)-2-methyloxan-4-yl]-2-{1-[(3S)-oxan-3-yl]-5-oxopyrrolidin-3-yl}-1H-imidazo[4,5-c]quinoline-8-carbonitrile] was tested. Which IC50 [1] did it give?
**A.** 401 nM

**Q.** And the IC50 [2]?
**A.** 2.91 nM

**Q.** `CN1CC(n2c(CC(=O)NCC3CC3)nc3cnc4ccc(C#N)cc4c32)CCC1=O` (single isomer, unassigned) [Compound 90] was tested. Which IC50 [1] did it give?
**A.** 799 nM

**Q.** What about the IC50 [2] of the same compound?
**A.** 1.42 nM

**Q.** With `C[C@@H]1C[C@H](n2c(CC(=O)NC3CCC3)nc3cnc4ccc(C#N)cc4c32)CCO1` [Compound 84, 2-{8-cyano-1-[(2R,4R)-2-methyloxan-4-yl]-1H-imidazo[4,5-c]quinolin-2-yl}-N-cyclobutylacetamide] as the compound, how does the IC50 [1] read?
**A.** 26.2 nM

**Q.** And the IC50 [2]?
**A.** 0.436 nM

**Q.** `C[C@@H]1C[C@H](n2c([C@H]3CN(CC4CC4)S(=O)(=O)C3)nc3cnc4ccc(C#N)cc4c32)CCO1` [Compound 2, 2-[(4R)-2-(cyclopropylmethyl)-1,1-dioxo-1λ^6,2-thiazolidin-4-yl]-1-[(2R,4R)-2-methyloxan-4-yl]-1H-imidazo[4,5-c]quinoline-8-carbonitrile] was tested. Which IC50 [1] did it give?
**A.** 39.2 nM

**Q.** What about the IC50 [2] of the same compound?
**A.** 0.662 nM

**Q.** For `C[C@@H]1C[C@H](n2c(CC(=O)NC3(C(F)(F)F)CC3)nc3cnc4ccc(C#N)cc4c32)CCO1` [Compound 287, N-1-(trifluoromethyl)cyclopropyl{3-[(2R,4R)-2-methyltetrahydro-2H-pyran-4-yl]-12-cyano-3,5,8-triazatricyclo[7.4.0.0^2,6]trideca-1,4,6,8,10,12-hexaen-4-yl}acetamide], which IC50 [1] is on record?
**A.** 118 nM

**Q.** And the IC50 [2]?
**A.** 1.61 nM

**Q.** How did the IC50 [1] turn out when `C[C@@H]1C[C@H](n2c([C@H]3CC(=O)N(c4cnn(C)c4)C3)nc3cnc4ccc(C#N)cc4c32)CCO1` [Compound 47, 2-[(3S)-1-(1-methyl-1H-pyrazol-4-yl)-5-oxopyrrolidin-3-yl]-1-[(2R,4R)-2-methyloxan-4-yl]-1H-imidazo[4,5-c]quinoline-8-carbonitrile] was run?
**A.** 9880 nM

**Q.** And the IC50 [2]?
**A.** 141 nM

**Q.** With `C[C@@H]1C[C@H](n2c(C(F)(F)C(=O)NCC3CC3)nc3cnc4ccc(C#N)cc4c32)CCO1` [Compound 334] as the compound, how does the IC50 [1] read?
**A.** 26.5 nM

**Q.** What about the IC50 [2] of the same compound?
**A.** 1.34 nM

**Q.** Which results are given for `C[C@@H]1C[C@H](n2c(CNC(=O)OC3CC3)nc3cnc4ccc(C#N)cc4c32)CCO1` [Compound 10, cyclopropyl N-({8-cyano-1-[(2R,4R)-2-methyloxan-4-yl]-1H-imidazo[4,5-c]quinolin-2-yl}methyl)carbamate]?
**A.** IC50 [1]: 165 nM; IC50 [2]: 1.92 nM

**Q.** Which results are given for `Cc1nccnc1NC(=O)Cc1nc2cnc3ccc(C#N)cc3c2n1[C@@H]1CCO[C@H](C)C1` [Compound 311, N-(3-methyl-2-pyrazinyl){3-[(2R,4R)-2-methyltetrahydro-2H-pyran-4-yl]-12-cyano-3,5,8-triazatricyclo[7.4.0.0^2,6]trideca-1(9),2(6),4,7,10,12-hexaen-4-yl}acetamide]?
**A.** IC50 [1]: 10 nM; IC50 [2]: 0.583 nM

**Q.** Which results are given for `Cc1c(NC(=O)Cc2nc3cnc4ccc(C#N)cc4c3n2[C@@H]2CCO[C@H](C)C2)cnn1C` [Compound 237, N-(1-methyl-5-methyl-4-pyrazolyl){3-[(2R,4R)-2-methyltetrahydro-2H-pyran-4-yl]-12-cyano-3,5,8-triazatricyclo[7.4.0.0^2,6]trideca-1,4,6,8,10,12-hexaen-4-yl}acetamide]?
**A.** IC50 [1]: 23.4 nM; IC50 [2]: 0.405 nM

**Q.** Which results are given for `COc1ccncc1NC(=O)Cc1nc2cnc3ccc(C#N)cc3c2n1[C@@H]1CCO[C@H](C)C1` [Compound 250, N-(4-methoxy-3-pyridyl){3-[(2R,4R)-2-methyltetrahydro-2H-pyran-4-yl]-12-cyano-3,5,8-triazatricyclo[7.4.0.0^2,6]trideca-1(9),2(6),4,7,10,12-hexaen-4-yl}acetamide]?
**A.** IC50 [1]: 6.01 nM; IC50 [2]: 0.664 nM

**Q.** Which results are given for `C[C@@H]1C[C@H](n2c(CC(=O)Nc3ccc(C(F)(F)F)n(C)c3=O)nc3cnc4ccc(C#N)cc4c32)CCO1` [Compound 221, N-[1-methyl-2-oxo-6-(trifluoromethyl)-1,2-dihydro-3-pyridyl]{3-[(2R,4R)-2-methyltetrahydro-2H-pyran-4-yl]-12-cyano-3,5,8-triazatricyclo[7.4.0.0^2,6]trideca-1,4,6,8,10,12-hexaen-4-yl}acetamide]?
**A.** IC50 [1]: 5.77 nM; IC50 [2]: 0.526 nM

**Q.** How did the IC50 [1] turn out when `C[C@@H]1C[C@H](n2c(CC(=O)Nc3cnn(C4CC4)c3)nc3cnc4ccc(C#N)cc4c32)CCO1` [Compound 307, N-(1-cyclopropyl-4-pyrazolyl){3-[(2R,4R)-2-methyltetrahydro-2H-pyran-4-yl]-12-cyano-3,5,8-triazatricyclo[7.4.0.0^2,6]trideca-1(13),2(6),4,7,9,11-hexaen-4-yl}acetamide] was run?
**A.** 17.2 nM

**Q.** What about the IC50 [2] of the same compound?
**A.** 0.683 nM

**Q.** `C[C@@H]1C[C@H](n2c(CC(=O)Nc3cnccn3)nc3cnc4ccc(C#N)cc4c32)CCO1` [Compound 337, N-2-pyrazinyl{3-[(2R,4R)-2-methyltetrahydro-2H-pyran-4-yl]-12-cyano-3,5,8-triazatricyclo[7.4.0.0^2,6]trideca-1,4,6,8,10,12-hexaen-4-yl}acetamide] was tested. Which IC50 [1] did it give?
**A.** 1.61 nM

**Q.** And the IC50 [2]?
**A.** 0.337 nM

**Q.** Which IC50 [1] does the source give for `C[C@@H]1C[C@H](n2c(CC(=O)NC[C@H]3CCOC3)nc3cnc4ccc(C#N)cc4c32)CCO1` [Compound 172, 2-{8-cyano-1-[(2R,4R)-2-methyloxan-4-yl]-1H-imidazo[4,5-c]quinolin-2-yl}-N-{[(3R)-oxolan-3-yl]methyl}acetamide] here?
**A.** 37.6 nM

**Q.** And the IC50 [2]?
**A.** 0.567 nM

**Q.** Which results are given for `C[C@@H]1C[C@H](n2c(CC(=O)N[C@@H]3C[C@H]3F)nc3cnc4ccc(C#N)cc4c32)CCO1` [Compound 246, N-[(1R,2R)-2-fluorocyclopropyl]{3-[(2R,4R)-2-methyltetrahydro-2H-pyran-4-yl]-12-cyano-3,5,8-triazatricyclo[7.4.0.0^2,6]trideca-1(13),2(6),4,7,9,11-hexaen-4-yl}acetamide]?
**A.** IC50 [1]: 52.2 nM; IC50 [2]: 1.1 nM

**Q.** With `Cc1ccc(NC(=O)Cc2nc3cnc4ccc(C#N)cc4c3n2[C@@H]2CCO[C@H](C)C2)cn1` [Compound 319, N-(6-methyl-3-pyridyl){3-[(2R,4R)-2-methyltetrahydro-2H-pyran-4-yl]-12-cyano-3,5,8-triazatricyclo[7.4.0.0^2,6]trideca-1(9),2(6),4,7,10,12-hexaen-4-yl}acetamide] as the compound, how does the IC50 [1] read?
**A.** 5.93 nM

**Q.** And the IC50 [2]?
**A.** 0.542 nM

**Q.** How did the IC50 [1] turn out when `C[C@@H]1C[C@H](n2c(CC(=O)Nc3cc(C4CC4)on3)nc3cnc4ccc(C#N)cc4c32)CCO1` [Compound 359, N-(5-cyclopropyl-3-isoxazolyl){3-[(2R,4R)-2-methyltetrahydro-2H-pyran-4-yl]-12-cyano-3,5,8-triazatricyclo[7.4.0.0^2,6]trideca-1(9),2(6),4,7,10,12-hexaen-4-yl}acetamide] was run?
**A.** 4.76 nM

**Q.** And the IC50 [2]?
**A.** 0.525 nM

**Q.** What does the source list for `C[C@@H]1C[C@H](n2c(CNC(=O)OC(C)(C)C)nc3cnc4ccc(C#N)cc4c32)CCO1` [Compound 33, tert-butyl N-({8-cyano-1-[(2R,4R)-2-methyloxan-4-yl]-1H-imidazo[4,5-c]quinolin-2-yl}methyl)carbamate]?
**A.** IC50 [1]: 396 nM; IC50 [2]: 5.24 nM

From patent publication US20250270209A1 (INTERLINE THERAPEUTICS, INC., priority 2022, published 2025)
